Tested on: Vasopressin V2
Assay: Vasopressin V2 agonist effects in normal conscious water-loaded rats
Format: in vivo
Conditions: oral dose of 10 mg/kg, urine collected for four hours after dosing, Sprague-Dawley (CD) rats, water-loaded 30 ml/kg; for Changes in Urinary Osmolality: Percent changes in osmolality vs. control; for Urine Volume (% decrease): Percent decrease in urine volume vs. control
Source text: Vasopressin V2 Agonist Effects of Test Compounds in Normal Conscious Water-Loaded Rats:
Male or female normotensive Sprague-Dawley rats (Charles River Laboratories, Inc., Kingston, NY) of 350-500 g body weight were supplied with standard rodent diet (Purina Rodent Lab. Chow 5001) and water ad libitum. On the day of test, rats were placed individually into metabolic cages equipped with devices to separate the feces from the urine and containers for collection of urine. A test compound or a reference agent was given at an oral dose of 10 mg/kg in a volume of 10 ml/kg. The vehicle used was 20% dimethylsulfoxide (DMSO) in 2.5% preboiled corn starch. Thirty minutes after dosing the test compound, rats were gavaged with water at 30 ml/kg into the stomach using a feeding needle. During the test, rats were not provided with water or food. Urine was collected for four hours after dosing of the test compound. At the end of four hours, urine volume was measured. Urinary osmolality was determined using a Fiske One-Ten Osmometer (Fiske Associates, Norwood, MA, 02062) or an Advanced CRYOMATIC Osmometer, Model 3C2 (Advanced Instruments, Norwood, MA). Determinations of Na^+, K^+ and Cl^- ion were carried out using ion specific electrodes in a Beckman SYNCHRON EL-ISE Electrolyte System analyzer. The urinary osmolality should increase proportionally. In the screening test, two rats were used for each compound. If the difference in the urine volume of the two rats was greater than 50%, a third rat was used.

Structure (SMILES)	Changes in Urinary Osmolality	Urine Volume (% decrease)
Cc1ccn(-c2ccc(C(=O)N3Cc4ccc[n+]([O-])c4Nc4ccccc43)c(Cl)c2)n1 [Example 1, [2-Chloro-4-(3-methyl-1H-pyrazol-1-yl)-phenyl]-(6,11-dihydro-5H-pyrido[2,3-b][1,5]benzodiazepin-6-yl)-methanone-1-oxide]	753%	80%
Cc1ccn(-c2ccc(C(=O)N3Cc4ccc[n+]([O-])c4Nc4ccccc43)c(Br)c2)n1 [Example 3, [2-Bromo-4-(3-methyl-1H-pyrazol-1-yl)-phenyl]-(6,11-dihydro-5H-pyrido [2,3-b][1,5]benzodiazepin-6-yl)-methanone-1-oxide]	747%	90%
Cc1ccn(-c2ccc(C(=O)N3Cc4ccc[n+]([O-])c4Nc4ccccc43)c(C(F)(F)F)c2)n1 [Example 4, 4-[(3-Methyl-1H-pyrazol-1-yl)-2-(trifluoromethyl)-phenyl]-(6,11-dihydro-5H-pyrido[2,3-b][1,5]benzodiazepin-6-yl)-methanone 1-oxide]	331%	72%
